Laboratory results from PubChem BioAssay AID330 (DTP/NCI, 2004).
Inconclusive results and toxic doses are left out. Rule for the calls: active = survival T/C of 150% or more; inactive = T/C below 125% in these data.

Tested on: P388 leukemia ip, CD2F1 mice, survival T/C
Assay: NCI In Vivo Anticancer Drug Screen. Data for tumor model P388 Leukemia (intraperitoneal) in CD2F1 (CDF1) mice
Conditions: endpoint: median survival time, higher = longer survival
How it was run: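 Mice carrying the transplanted tumor received test compound or vehicle. Survival was recorded in each group, and the value is the treated-group measurement divided by that of the vehicle-treated control group.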

[1] = dose: 50.0 mg/kg/injection, schedule: Q01DX005 (ip), vehicle: saline with Tween-80
[2] = dose: 100.0 mg/kg/injection, schedule: Q01DX005 (ip), vehicle: saline with Tween-80
[3] = dose: 200.0 mg/kg/injection, schedule: Q01DX005 (ip), vehicle: saline with Tween-80
[4] = dose: 50.0 mg/kg/injection, schedule: Q01DX005 (ip), vehicle: saline
[5] = dose: 100.0 mg/kg/injection, schedule: Q01DX001 (ip), vehicle: saline with Tween-80
[6] = dose: 200.0 mg/kg/injection, schedule: Q01DX001 (ip), vehicle: saline with Tween-80

Measured: T/C

CC1=C(/C=C/C(C)=N/NC(N)=S)C(C)(C)CCC1
inactive: dose: 6.25 mg/kg/injection, schedule: Q01DX009 (ip), vehicle: saline with Tween-80 100 % of control | dose: 12.5 mg/kg/injection, schedule: Q01DX009 (ip), vehicle: saline with Tween-80 115 % of control

CCC1(/C=N/NC(N)=O)NC(=O)NC1=O (centres undefined)
inactive: [1] 93 % of control | [2] 96 % of control | [3] 88 % of control

O=C(Nc1ccccc1)N1CC2(CN1)CNN(C(=O)Nc1ccccc1)C2
inactive: dose: 50.0 mg/kg/injection, schedule: Q01DX001 (ip), vehicle: Klucel (hydroxypropylcellulose) (HPC) 103 % of control | dose: 100.0 mg/kg/injection, schedule: Q01DX001 (ip), vehicle: Klucel (hydroxypropylcellulose) (HPC) 100 % of control | dose: 200.0 mg/kg/injection, schedule: Q01DX001 (ip), vehicle: Klucel (hydroxypropylcellulose) (HPC) 91 % of control

O=NN(C(=O)NCCN1CCOCC1)C1CCCCC1
inactive: dose: 25.0 mg/kg/injection, schedule: Q01DX001 (ip), vehicle: water 115 % of control | dose: 50.0 mg/kg/injection, schedule: Q01DX001 (ip), vehicle: water 100 % of control | dose: 100.0 mg/kg/injection, schedule: Q01DX001 (ip), vehicle: water 103 % of control | dose: 200.0 mg/kg/injection, schedule: Q01DX001 (ip), vehicle: water 111 % of control | dose: 400.0 mg/kg/injection, schedule: Q01DX001 (ip), vehicle: water 117 % of control

O=CNNC(=O)c1cnccn1
inactive: dose: 89.0 mg/kg/injection, schedule: Q01DX009 (ip), vehicle: water 109 % of control | dose: 133.0 mg/kg/injection, schedule: Q01DX009 (ip), vehicle: water 100 % of control | dose: 200.0 mg/kg/injection, schedule: Q01DX009 (ip), vehicle: water 118 % of control

C[n+]1ccccc1NC(=O)c1ccccc1
inactive: dose: 61.5 mg/kg/injection, schedule: Q01DX001 (ip), vehicle: saline 100 % of control | dose: 123.0 mg/kg/injection, schedule: Q01DX001 (ip), vehicle: saline 104 % of control | dose: 246.0 mg/kg/injection, schedule: Q01DX001 (ip), vehicle: saline 104 % of control

CCCCSc1n[nH]c(C2CCC(=O)N2Cc2ccccc2)n1 (centres undefined)
inactive: dose: 60.0 mg/kg/injection, schedule: Q01DX005 (ip), vehicle: saline with Tween-80 100 % of control | dose: 120.0 mg/kg/injection, schedule: Q01DX005 (ip), vehicle: saline with Tween-80 93 % of control | dose: 240.0 mg/kg/injection, schedule: Q01DX005 (ip), vehicle: saline with Tween-80 91 % of control

[C-]#[O+].[C-]#[O+].[C-]#[O+].[C-]#[O+].[Mo].c1cnc2c(c1)ccc1cccnc12
inactive: dose: 6.25 mg/kg/injection, schedule: Q01DX009 (ip), vehicle: Klucel (hydroxypropylcellulose) (HPC) 100 % of control | dose: 12.5 mg/kg/injection, schedule: Q01DX009 (ip), vehicle: Klucel (hydroxypropylcellulose) (HPC) 95 % of control | dose: 25.0 mg/kg/injection, schedule: Q01DX009 (ip), vehicle: Klucel (hydroxypropylcellulose) (HPC) 93 % of control | dose: 50.0 mg/kg/injection, schedule: Q01DX009 (ip), vehicle: Klucel (hydroxypropylcellulose) (HPC) 95 % of control

Cc1cc(OP2(=O)Nc3ccccc3-c3ccccc3N2)ccc1Cl
inactive: [1] 98 % of control | [2] 89 % of control

O/N=C1/CCC/C(=N/O)C1
inactive: [1] 100 % of control | [2] 98 % of control | [3] 107 % of control

O=C1c2ccc([N+](=O)[O-])cc2NC(O)c2cccn21 (centres undefined)
inactive: dose: 0.1 mg/kg/injection, schedule: Q01DX005 (ip), vehicle: water 96 % of control | dose: 0.2 mg/kg/injection, schedule: Q01DX005 (ip), vehicle: water 96 % of control | dose: 0.4 mg/kg/injection, schedule: Q01DX005 (ip), vehicle: water 91 % of control | dose: 0.8 mg/kg/injection, schedule: Q01DX005 (ip), vehicle: water 96 % of control | dose: 1.6 mg/kg/injection, schedule: Q01DX005 (ip), vehicle: water 96 % of control | dose: 5.0 mg/kg/injection, schedule: Q01DX005 (ip), vehicle: distilled water + Tween-80 99 % of control | dose: 10.0 mg/kg/injection, schedule: Q01DX005 (ip), vehicle: distilled water + Tween-80 95 % of control | dose: 20.0 mg/kg/injection, schedule: Q01DX005 (ip), vehicle: distilled water + Tween-80 95 % of control | dose: 40.0 mg/kg/injection, schedule: Q01DX005 (ip), vehicle: distilled water + Tween-80 91 % of control | dose: 80.0 mg/kg/injection, schedule: Q01DX005 (ip), vehicle: distilled water + Tween-80 91 % of control

C/C(=N\NC(=S)N1CCSCC1)c1ccccn1
inactive: dose: 6.25 mg/kg/injection, schedule: Q01DX005 (ip), vehicle: saline with Tween-80 113 % of control | dose: 12.5 mg/kg/injection, schedule: Q01DX005 (ip), vehicle: saline with Tween-80 91 % of control

O=C1c2ccccc2C2NCCCN12 (centres undefined)
inactive: dose: 50.0 mg/kg/injection, schedule: Q01DX009 (ip), vehicle: suspension in saline 93 % of control | dose: 100.0 mg/kg/injection, schedule: Q01DX009 (ip), vehicle: suspension in saline 102 % of control | dose: 200.0 mg/kg/injection, schedule: Q01DX009 (ip), vehicle: suspension in saline 107 % of control | dose: 400.0 mg/kg/injection, schedule: Q01DX009 (ip), vehicle: suspension in saline 111 % of control

COc1cc(NCCCCCNC(C)C)c2ncc(C)c(C)c2c1
inactive: dose: 12.5 mg/kg/injection, schedule: Q01DX005 (ip), vehicle: saline 102 % of control | dose: 25.0 mg/kg/injection, schedule: Q01DX005 (ip), vehicle: saline 100 % of control | [4] 100 % of control

Nc1ncc(CCCCc2ccccc2)c(=O)[nH]1
inactive: [5] 100 % of control | [6] 104 % of control | dose: 400.0 mg/kg/injection, schedule: Q01DX001 (ip), vehicle: saline with Tween-80 100 % of control

O=c1[nH]cn[nH]1
inactive: [4] 101 % of control | dose: 100.0 mg/kg/injection, schedule: Q01DX005 (ip), vehicle: saline 98 % of control | dose: 200.0 mg/kg/injection, schedule: Q01DX005 (ip), vehicle: saline 95 % of control

CN1C2Cc3cc4c(cc3[C@@]23Cc2ccc5c(c2[C@@H]1O3)OCO5)OCO4 (some centres undefined)
inactive: dose: 8.0 mg/kg/injection, schedule: Q01DX005 (ip), vehicle: Klucel (hydroxypropylcellulose) (HPC) 94 % of control | dose: 16.0 mg/kg/injection, schedule: Q01DX005 (ip), vehicle: Klucel (hydroxypropylcellulose) (HPC) 109 % of control | dose: 32.0 mg/kg/injection, schedule: Q01DX005 (ip), vehicle: Klucel (hydroxypropylcellulose) (HPC) 94 % of control | dose: 64.0 mg/kg/injection, schedule: Q01DX005 (ip), vehicle: Klucel (hydroxypropylcellulose) (HPC) 98 % of control

CCC1COc2nc(=O)c(C=NCCCN(C)C)c(N)n21 (centres undefined)
inactive: dose: 60.0 mg/kg/injection, schedule: Q01DX005 (ip), vehicle: saline 100 % of control | dose: 120.0 mg/kg/injection, schedule: Q01DX005 (ip), vehicle: saline 105 % of control | dose: 240.0 mg/kg/injection, schedule: Q01DX005 (ip), vehicle: saline 99 % of control

COCOc1c(C)ccc2c1CCC2
inactive: dose: 100.0 mg/kg/injection, schedule: Q04DX002 (ip), vehicle: saline with Tween-80 91 % of control | dose: 200.0 mg/kg/injection, schedule: Q04DX002 (ip), vehicle: saline with Tween-80 97 % of control | dose: 400.0 mg/kg/injection, schedule: Q04DX002 (ip), vehicle: saline with Tween-80 95 % of control

COCN(Cc1ccccc1)C[Si](C)(C)C
inactive: [5] 106 % of control | [6] 99 % of control

CCN(CC)CC(C)Nc1cc(C)nc2c1ccc1c2ccc2c(NC(C)CN(CC)CC)cc(C)nc21 (centres undefined)
inactive: dose: 12.5 mg/kg/injection, schedule: Q01DX009 (ip), vehicle: distilled water + Tween-80 113 % of control | dose: 25.0 mg/kg/injection, schedule: Q01DX009 (ip), vehicle: distilled water + Tween-80 111 % of control | dose: 50.0 mg/kg/injection, schedule: Q01DX009 (ip), vehicle: distilled water + Tween-80 119 % of control

COC(=O)CCC1=C(C)c2cc3[n-]c(cc4nc(cc5[n-]c(cc1n2)c(CCC(=O)OC)c5C)C(C(C)=O)=C4C)c(C(C)=O)c3C.[Cl-].[Fe+3]
inactive: dose: 50.0 mg/kg/injection, schedule: Q01DX005 (ip), vehicle: Klucel (hydroxypropylcellulose) (HPC) 104 % of control | dose: 100.0 mg/kg/injection, schedule: Q01DX005 (ip), vehicle: Klucel (hydroxypropylcellulose) (HPC) 106 % of control | dose: 200.0 mg/kg/injection, schedule: Q01DX005 (ip), vehicle: Klucel (hydroxypropylcellulose) (HPC) 99 % of control
